Assay results taken from US10981894B2, “Melanocortin subtype-2 receptor (MC2R) antagonists and uses thereof” (Crinetics Pharmaceuticals, Inc., priority 2018, dated 2021).

Target: hMC2 receptor (Homo sapiens, UniProt Q01718)
Assay: hMC2 membrane binding assay ([125I]ACTH (1-39) Tyr23, SPA)
Design: scale not given here
Conditions: crude hMC2R membranes from CRE-bla-CHO-K1 cells expressing hMC2 receptor and hMRAP; [125I]ACTH (1-39) Tyr23 0.2 nM; 1.5 hours at room temperature; read-out: MC2R binding potency
Experimental: Crude membrane fractions are prepared from CRE-bla-CHO-K1 cells stably expressing hMC2 receptor and hMRAP accessory protein (Thermo Fisher). The cells are grown to 85-100% confluence on standard tissue culture dishes in GlutaMax DMEM growth media (Gibco) with following additives: 10% dialyzed FBS (Gemini), 0.1 mM NEAA (Gibco), 25 mM HEPES (Gibco), 5 μg/mL blasticidin (Goldbio), 100 μg/mL zeocin (Invitrogen), 600 μg/mL hygromycin (Goldbio). To prepare membranes, cells are scraped and collected in 1× Dulbecco's phosphate buffered saline (Corning) and then pelleted at 1000 RPM's. The cell pellet is reconstituted in membrane preparation buffer (20 mM HEPES, 6 mM MgCl2 and 1 mM EGTA, protease inhibitor tablets (Pierce) adjusted to pH 7.4), homogenized using a dounce homogenizer, and the resulting membrane fraction is pelleted by centrifugation at 12,000 RPM's. The membrane pellet is resuspended in membrane preparation buffer, snap freezed and stored at −80° C. for later use.
Binding Assay for hMC2 Antagonists Protocol:
The hMC2 membrane binding assay utilizes the following components: radiolabel [^125I]ACTH (1-39) Tyr23 (PerkinElmer), wheatgerm agglutinin coated PVT SPA beads (PerkinElmer), crude hMC2R membranes, and compounds. Briefly hMC2R membranes are incubated with SPA beads in binding assay buffer (50 mM HEPES, 5 mM MgCl2, 1 mM CaCl2, 0.2% BSA, protease inhibitor tablets (Pierce) adjusted to pH7.4) prior to assay initiation. A dose response of compound (the final concentration of compound are typically 0-10,000 nM), SPA membranes, and [^125I]ACTH (1-39) Tyr23 at a final concentration of 0.2 nM is plated in a 96-well assay plate and allowed to incubate 1.5 hours at room temperature. Assay plates are read using a Top Count NXT and Ki values for compounds are determined using a GraphPad Prism 6 non-linear regression analysis.

Sequence of hMC2 receptor (Q01718 whole entry): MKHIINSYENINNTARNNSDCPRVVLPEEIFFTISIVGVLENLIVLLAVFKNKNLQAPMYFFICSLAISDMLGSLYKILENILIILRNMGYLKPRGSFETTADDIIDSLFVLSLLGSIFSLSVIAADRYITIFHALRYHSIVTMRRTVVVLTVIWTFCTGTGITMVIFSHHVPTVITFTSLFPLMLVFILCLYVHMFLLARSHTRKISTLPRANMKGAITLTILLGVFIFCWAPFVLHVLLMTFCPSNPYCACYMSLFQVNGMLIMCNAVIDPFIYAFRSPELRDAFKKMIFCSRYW
Sequence of hMC2 receptor (Q8TCY5 whole entry partner): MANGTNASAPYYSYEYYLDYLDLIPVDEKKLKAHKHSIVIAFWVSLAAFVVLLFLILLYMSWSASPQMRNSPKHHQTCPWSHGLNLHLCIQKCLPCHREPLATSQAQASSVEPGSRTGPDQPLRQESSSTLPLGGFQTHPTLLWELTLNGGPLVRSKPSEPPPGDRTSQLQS

Structure (SMILES)	Ki
CCOc1ncccc1-c1ccc(N2CCN(C(=O)c3ccc(Cl)cc3C(F)(F)F)C[C@H]2CC)c(C(=O)NCC2=NCCN2)c1 [Compound 1-125, 2-[(2R)-4-[4-chloro-2-(trifluoromethyl)benzoyl]-2-ethylpiperazin-1-yl]-N-[(4,5-dihydro-1H-imidazol-2-yl)methyl]-5-(2-ethoxypyridin-3-yl)benzamide]	< 10 nM
CCOc1ncccc1-c1ccc(N2CCN(C(=O)c3ccc(Cl)cc3C#N)C[C@H]2CC)c(C(=O)N[C@@H]2CCN(C)C2)n1 [Compound 1-260, 5-[(2R)-4-(4-chloro-2-cyanobenzoyl)-2-ethylpiperazin-1-yl]-2′-ethoxy-N-[(3R)-1-methylpyrrolidin-3-yl]-[2,3′-bipyridine]-6-carboxamide]	< 10 nM
CCOc1ncccc1-c1ccc(N2CCN(C(=O)c3ccc(C(F)(F)F)cc3N3CCC(CN)C3)C[C@H]2CC)c(C(=O)NCCN)c1 (stereo partly drawn) [Compound 1-50, N-(2-aminoethyl)-2-[(2R)-4-{2-[3-(aminomethyl)pyrrolidin-1-yl]-4-(trifluoromethyl)benzoyl}-2-ethylpiperazin-1-yl]-5-(2-ethoxypyridin-3-yl)benzamide]	< 10 nM
CCOc1ncccc1-c1ccc(N2CCN(C(=O)c3ccc(Cl)cc3C(F)(F)F)C[C@H]2CC)c(C(=O)N[C@@H]2CCNC2)c1F [Compound 1-72, 6-[(2R)-4-[4-chloro-2-(trifluoromethyl)benzoyl]-2-ethylpiperazin-1-yl]-3-(2-ethoxypyridin-3-yl)-2-fluoro-N-[(3R)-pyrrolidin-3-yl]benzamide]	< 10 nM
CCOc1ncccc1-c1ccc(N2CCN(C(=O)c3ccc(Cl)cc3C(F)(F)F)C[C@H]2CC)c(C(=O)N[C@H]2CCN(C)C2)n1 [Compound 1-215, 5-[(2R)-4-[4-chloro-2-(trifluoromethyl)benzoyl]-2-ethylpiperazin-1-yl]-2′-ethoxy-N-[(3S)-1-methylpyrrolidin-3-yl]-[2,3′-bipyridine]-6-carboxamide]	< 10 nM
CCOc1ncccc1-c1ccc(N2CCN(C(=O)c3ccc(Cl)cc3Cl)C[C@H]2CC)c(C(=O)NCCN)c1 [Compound 1-42, N-(2-aminoethyl)-2-[(2R)-4-(2,4-dichlorobenzoyl)-2-ethylpiperazin-1-yl]-5-(2-ethoxypyridin-3-yl)benzamide]	< 10 nM
CC[C@@H]1CN(C(=O)c2ccc(C(F)(F)F)cc2Cl)CCN1c1ccc(-c2ccccc2OC)cc1C(=O)NCCN [Compound 1-2, N-(2-aminoethyl)-4-[(2R)-4-[2-chloro-4-(trifluoromethyl)benzoyl]-2-ethylpiperazin-1-yl]-2′-methoxy-[1,1′-biphenyl]-3-carboxamide]	< 10 nM
CCOc1ncccc1-c1ccc(N2CCN(C(=O)c3ccc(C(F)(F)F)cc3Cl)C[C@H]2CC)c(C(=O)NCCN)c1 [Compound 1-34, N-(2-aminoethyl)-2-[(2R)-4-[2-chloro-4-(trifluoromethyl)benzoyl]-2-ethylpiperazin-1-yl]-5-(2-ethoxypyridin-3-yl)benzamide]	< 10 nM
CCOc1ncccc1-c1ccc(N2CCN(C(=O)c3ccc(C)cc3N3CC[C@H](N(C)C)C3)C[C@H]2CC)c(C(=O)NCCN)c1 [Compound 1-68, N-(2-aminoethyl)-2-[(2R)-4-{2-[(3S)-3-(dimethylamino)pyrrolidin-1-yl]-4-methylbenzoyl}-2-ethylpiperazin-1-yl]-5-(2-ethoxypyridin-3-yl)benzamide]	< 10 nM
CCOc1ncccc1-c1ccc(N2CCN(C(=O)c3ccc(Cl)cc3C(F)(F)F)C[C@H]2CC)c(C(=O)NCC2=NCCN2)c1F [Compound 1-188, 6-[(2R)-4-[4-chloro-2-(trifluoromethyl)benzoyl]-2-ethylpiperazin-1-yl]-N-[(4,5-dihydro-1H-imidazol-2-yl)methyl]-3-(2-ethoxypyridin-3-yl)-2-fluorobenzamide]	< 10 nM
CCOc1ccc(C(=O)N2CCN(c3ccc(-c4cccnc4OCC)nc3C(=O)NCCN(C)C)[C@H](CC)C2)c(C(F)(F)F)n1 [Compound 1-207, N-[2-(dimethylamino)ethyl]-2′-ethoxy-5-[(2R)-4-[6-ethoxy-2-(trifluoromethyl)pyridine-3-carbonyl]-2-ethylpiperazin-1-yl]-[2,3′-bipyridine]-6-carboxamide]	< 10 nM
CCOc1ncccc1-c1ccc(N2CCN(C(=O)c3ccc(C4CC4)cc3C)C[C@H]2CC)c(C(=O)NCCN)c1 [Compound 1-88, N-(2-aminoethyl)-2-[(2R)-4-(4-cyclopropyl-2-methylbenzoyl)-2-ethylpiperazin-1-yl]-5-(2-ethoxypyridin-3-yl)benzamide]	< 10 nM

Results, then the compound that gave them:

Ki	Structure (SMILES)
< 10 nM	CCOc1ncccc1-c1ccc(N2CCN(C(=O)O[C@@H](c3ccccc3)C(F)(F)F)C[C@H]2CC)c(C(=O)N[C@@H]2CCNC2)n1 [Compound 1-377, (1S)-2,2,2-trifluoro-1-phenylethyl (3R)-4-(2′-ethoxy-6-{[(3R)-pyrrolidin-3-yl]carbamoyl}-[2,3′-bipyridin]-5-yl)-3-ethylpiperazine-1-carboxylate]
< 10 nM	CCOc1ncccc1-c1ccc(N2CCN(C(=O)n3ccc4cccc(C#N)c43)C[C@H]2CC)c(C(=O)N[C@@H]2CCN(C)C2)n1 [Compound 1-429, 5-[(2R)-4-(7-cyano-1H-indole-1-carbonyl)-2-ethylpiperazin-1-yl]-2′-ethoxy-N-[(3R)-1-methylpyrrolidin-3-yl]-[2,3′-bipyridine]-6-carboxamide]
< 10 nM	CCOc1ncccc1-c1ccc(N2CCN(C(=O)C3(C(F)(F)F)CCCC3)C[C@H]2CC)c(C(=O)N[C@H]2CCNC2)n1 [Compound 1-321, 2′-ethoxy-5-[(2R)-2-ethyl-4-[1-(trifluoromethyl)cyclopentanecarbonyl]piperazin-1-yl]-N-[(3S)-pyrrolidin-3-yl]-[2,3′-bipyridine]-6-carboxamide]
< 10 nM	CCOc1ncccc1-c1ccc(N2CCN(C(=O)n3ccc4cccc(C(F)(F)F)c43)C[C@H]2CC)c(C(=O)N[C@@H]2CCN(C)C2)n1 [Compound 1-436, 2′-ethoxy-5-[(2R)-2-ethyl-4-[7-(trifluoromethyl)-1H-indole-1l-carbonyl]piperazin-1-yl]-N-[(3R)-1-methylpyrrolidin-3-yl]-[2,3′-bipyridine]-6-carboxamide]
< 10 nM	CCOc1ncccc1-c1ccc(N2CCN(C(=O)OC(C(C)(C)C)C(F)(F)F)C[C@H]2CC)c(C(=O)N[C@@H]2CCNC2)n1 (single isomer, unassigned) [Compound 1-367, (2S*)-1,1,1-trifluoro-3,3-dimethylbutan-2-yl (3R)-4-(2′-ethoxy-6-{[(3R)-pyrrolidin-3-yl]carbamoyl}-[2,3′-bipyridin]-5-yl)-3-ethylpiperazine-1-carboxylate]
< 10 nM	CCOc1ncccc1-c1ccc(N2CCN(C(=O)O[C@@H](C(C)(C)C)C(F)(F)F)C[C@H]2CC)c(C(=O)NCC2CN(C)C2)n1 (single isomer, unassigned) [Compound 1-396, (2S)-1,1,1-trifluoro-3,3-dimethylbutan-2-yl (3R)-4-(2′-ethoxy-6-{[(1-methylazetidin-3-yl)methyl]carbamoyl}-[2,3′-bipyridin]-5-yl)-3-ethylpiperazine-1-carboxylate; or (2R)-1,1,1-trifluoro-3,3-dimethylbutan-2-yl (3R)-4-(2′-ethoxy-6-{[(1-methylazetidin-3-yl)methyl]carbamoyl}-[2,3′-bipyridin]-5-yl)-3-ethylpiperazine-1-carboxylate]
< 10 nM	CCOc1ccccc1-c1ccc(N2CCN(C(=O)C3(C(F)(F)F)CCCC3)C[C@H]2CC)c(C(=O)N[C@H]2CCN(C)C2)n1 [Compound 1-401, 6-(2-ethoxyphenyl)-3-[(2R)-2-ethyl-4-[1-(trifluoromethyl)cyclopentanecarbonyl]piperazin-1-yl]-N-[(3S)-1-methylpyrrolidin-3-yl]pyridine-2-carboxamide]
< 10 nM	CCOc1ccccc1-c1ccc(N2CCN(C(=O)C3(CC(F)(F)F)CCC3)C[C@H]2CC)c(C(=O)N[C@@H]2CCN(C)C2)n1 [Compound 1-349, 6-(2-ethoxyphenyl)-3-[(2R)-2-ethyl-4-[1-(2,2,2-trifluoroethyl)cyclobutanecarbonyl]piperazin-1-yl]-N-[(3R)-1-methylpyrrolidin-3-yl]pyridine-2-carboxamide]
< 10 nM	CCOc1ccccc1-c1ccc(N2CCN(C(=O)n3ccc4cccc(Cl)c43)C[C@H]2CC)c(C(=O)N[C@@H]2CCN(C)C2)n1 [Compound 1-431, 3-[(2R)-4-(7-chloro-1H-indole-1-carbonyl)-2-ethylpiperazin-1-yl]-6-(2-ethoxyphenyl)-N-[(3R)-1-methylpyrrolidin-3-yl]pyridine-2-carboxamide]
< 10 nM	CCOc1ccccc1-c1ccc(N2CCN(C(=O)c3ccc(Cl)cc3C(F)F)C[C@H]2CC)c(C(=O)N[C@@H]2CCNC2)n1 [Compound 1-288, 3-[(2R)-4-[4-chloro-2-(difluoromethyl)benzoyl]-2-ethylpiperazin-1-yl]-6-(2-ethoxyphenyl)-N-[(3R)-pyrrolidin-3-yl]pyridine-2-carboxamide]
